The target in this experiment is human D1 receptor (Homo sapiens (Human), UniProt P21728). Nature of the experiment: Human D1 Receptor PAM Assay (cAMP HTRF, potentiator mode with EC20 dopamine). The settings on record: for EC50: HEK293 cells expressing human D1 receptor, 12 nM dopamine (EC20), cAMP, read-out: Abs EC50; for Emax: fitted top of curve, 0% = EC20 dopamine, 100% = 5 μM dopamine, read-out: % Top (% Potentiation). Type of experiment: cell-based. The source says:
The PAM activity of the compounds of the present invention may be measured essentially as described in Svensson et al., An Allosteric Potentiator of the Dopamine D1 Receptor Increases Locomotor Activity in Human D1 Knock-in Mices without Casusing Stereotypy or Tachyphylaxis. J. Pharmacol. Exp. Ther. (2017) 360:117-128.
More specifically, HEK293 cells that stably express the human D1 receptor (Accession number NM_000794) are generated by gene transduction using the pBABE-bleo retroviral vector and selected with Zeocin™ (InvivoGen). At approximately 80% confluency, the cells are harvested using TrypLE™ Express (Gibco), suspended in FBS plus 8% DMSO, and stored in liquid nitrogen. On the day of the assay, cells are thawed and resuspended in STIM buffer (Hanks Balanced Salt Solution supplemented with 0.1% BSA, 20 mM HEPES, 500 μM IBMX, and 100 μM ascorbic acid).
Test compound is serially diluted (1:2) with DMSO into assay plates (ProxiPlate-384 Plus, PerkinElmer) using acoustic dispensing (Labcyte) to provide 20 concentrations for full response curves. […] Plates are incubated at room temperature for a total reaction time of 60 min.
cAMP production is quantified using HTRF® detection (Cisbio) according to the manufacturer's instructions. Generally, lysis buffer containing anti-cAMP cryptate (5 μL) and D2-conjugate (from HTRF® kit) (5 μL) is added to the wells, plates are incubated for an additional 60-90 min, and the time-resolved fluorescence is detected using an EnVision™ plate reader (PerkinElmer). Fluorescence data is converted to cAMP concentrations using a cAMP standard curve and analyzing using a 4-parameter non-linear logistic equation (Genedata Screener, version 13.0.5-standard). For potentiator mode concentration-response curves, results are expressed as percent of the window between a response at EC20 concentration of dopamine alone (normalized to 0%) and the maximum response to dopamine (defined by response to 5 μM dopamine, final concentration, normalized as 100%).
Absolute EC50 values are calculated based on the maximum and minimum responses of the control agonist (dopamine). The % Potentiation (% Top) is determined from the fitted top of the concentration response curve.

In patent US10611751B2, “Dopamine D1 receptor positive allosteric modulators” (Eli Lilly and Company, priority 2018, dated 2020) one finds EC50 and Emax data, which are given here for 12 compounds.

human D1 receptor, sequence (P21728 whole entry): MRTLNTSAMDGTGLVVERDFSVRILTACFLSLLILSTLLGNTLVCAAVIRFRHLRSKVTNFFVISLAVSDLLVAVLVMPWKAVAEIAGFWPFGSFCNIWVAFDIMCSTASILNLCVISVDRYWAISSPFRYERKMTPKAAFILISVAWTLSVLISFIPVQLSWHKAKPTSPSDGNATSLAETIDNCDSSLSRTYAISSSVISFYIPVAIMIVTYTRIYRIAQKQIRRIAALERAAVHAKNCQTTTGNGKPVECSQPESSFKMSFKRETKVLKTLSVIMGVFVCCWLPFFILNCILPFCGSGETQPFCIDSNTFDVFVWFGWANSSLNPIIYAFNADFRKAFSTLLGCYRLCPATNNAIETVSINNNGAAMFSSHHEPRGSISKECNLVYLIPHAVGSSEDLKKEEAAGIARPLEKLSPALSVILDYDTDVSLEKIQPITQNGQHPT

In the case of `C[C@H]1c2cccc(-c3cn[nH]c3)c2C[C@H](CO)N1C(=O)Cc1cc(F)ccc1F` [Example 15, 2-(2,5-difluorophenyl)-1-((1S,3R)-3-(hydroxymethyl)-1-methyl-5-(1H-pyrazol-4-yl)-3,4-dihydroisoquinolin-2(1H)-yl)ethan-1-one], the 50% effective concentration (EC50) – broadly, the concentration giving half of the maximal effect – was found to be 836 nM and the Emax worked out at 75.5%.
Turning to `C[C@H]1c2cccc(-c3cnn(CCO)c3)c2C[C@H](CO)N1C(=O)Cc1ccccc1Cl` [Example 5, 1-((1S,3R)-5-(1-(2-(l1-oxidaneyl)ethyl)-1H-pyrazol-4-yl)-3-(hydroxymethyl)-1-methyl-3,4-dihydroisoquinolin-2(1H)-yl)-2-(2-chlorophenyl)ethan-1-one], the EC50 came to 18.3 nM and the Emax turned out to be 79.1%.
Turning to `C[C@H]1c2cccc(-c3cnn(C)c3)c2C[C@H](CO)N1C(=O)Cc1ccccc1Cl` [Example 7, 2-(2-chlorophenyl)-1-((1S,3R)-3-(hydroxymethyl)-1-methyl-5-(1-methyl-1H-pyrazol-4-yl)-3,4-dihydroisoquinolin-2(1H)-yl)ethan-1-one], the half-maximal effective concentration (EC50) came to 81.2 nM and the Emax stood at 82.4%.
Consider `C[C@H]1c2cccc(-c3cn[nH]c3)c2C[C@H](CO)N1C(=O)Cc1c(F)cccc1F` [Example 10, 2-(2,6-difluorophenyl)-1-((1S,3R)-3-(hydroxymethyl)-1-methyl-5-(1H-pyrazol-4-yl)-3,4-dihydroisoquinolin-2(1H)-yl)ethan-1-one], for which the EC50 is 127 nM and the Emax turned out to be 78.1%.
Consider `C[C@H]1c2cccc(-c3cnn(C4COC4)c3)c2C[C@H](CO)N1C(=O)Cc1c(F)cccc1Cl` [Example 6, 2-(2-chloro-6-fluorophenyl)-1-((1S,3R)-3-(hydroxymethyl)-1-methyl-5-(1-(oxetan-3-yl)-1H-pyrazol-4-yl)-3,4-dihydroisoquinolin-2(1H)-yl)ethan-1-one], for which the 50% effective concentration (EC50) came to 42.2 nM and the Emax was 80.4%.
In the same order, the values of `C[C@H]1c2cccc(-c3cn[nH]c3)c2C[C@H](CO)N1C(=O)Cc1ccccc1F` [Example 13, 2-(2-fluorophenyl)-1-((1S,3R)-3-(hydroxymethyl)-1-methyl-5-(1H-pyrazol-4-yl)-3,4-dihydroisoquinolin-2(1H)-yl)ethan-1-one] are 484 nM and 89.8%.
With `C[C@H]1c2cccc(-c3cn[nH]c3)c2C[C@H](CO)N1C(=O)Cc1ccc(F)cc1Cl` [Example 12, 2-(2-chloro-4-fluorophenyl)-1-((1S,3R)-3-(hydroxymethyl)-1-methyl-5-(1H-pyrazol-4-yl)-3,4-dihydroisoquinolin-2(1H)-yl)ethan-1-one], the 50% effective concentration (EC50) worked out at 540 nM and the Emax is 77.1%.
For `C[C@H]1c2cccc(-c3cnn(C4CC4)c3)c2C[C@H](CO)N1C(=O)Cc1c(Cl)cccc1Cl` [Example 3, 1-((1S,3R)-5-(1-cyclopropyl-1H-pyrazol-4-yl)-3-(hydroxymethyl)-1-methyl-3,4-dihydroisoquinolin-2(1H)-yl)-2-(2,6-dichlorophenyl)ethan-1-one], the concentration giving a half-maximal response (EC50) is 287 nM and the Emax came out at 88.1%.
For `C[C@H]1c2cccc(-c3cn[nH]c3)c2C[C@H](CO)N1C(=O)Cc1cccc(F)c1F` [Example 14, 2-(2,3-difluorophenyl)-1-((1S,3R)-3-(hydroxymethyl)-1-methyl-5-(1H-pyrazol-4-yl)-3,4-dihydroisoquinolin-2(1H)-yl)ethan-1-one] the same measures were 677 nM and 72.6%.
As to `C[C@H]1c2cccc(-c3cn[nH]c3)c2C[C@H](CO)N1C(=O)Cc1c(F)cccc1Cl` [Example 9, 2-(2-chloro-6-fluorophenyl)-1-((1S,3R)-3-(hydroxymethyl)-1-methyl-5-(1H-pyrazol-4-yl)-3,4-dihydroisoquinolin-2(1H)-yl)ethan-1-one], the EC50 amounted to 28 nM and the Emax stood at 81.5%.
In the case of `CCn1cc(-c2cccc3c2C[C@H](CO)N(C(=O)Cc2c(Cl)cccc2Cl)[C@H]3C)cn1` [Example 2, 2-(2,6-dichlorophenyl)-1-((1S,3R)-5-(1-ethyl-1H-pyrazol-4-yl)-3-(hydroxymethyl)-1-methyl-3,4-dihydroisoquinolin-2(1H)-yl)ethan-1-one], the EC50 turned out to be 172 nM and the Emax came out at 91.2%.
On to `C[C@H]1c2cccc(-c3cn[nH]c3)c2C[C@H](CO)N1C(=O)Cc1cc(F)ccc1Cl` [Example 11, 2-(2-chloro-5-fluorophenyl)-1-((1S,3R)-3-(hydroxymethyl)-1-methyl-5-(1H-pyrazol-4-yl)-3,4-dihydroisoquinolin-2(1H)-yl)ethan-1-one], for which the EC50 was 112 nM and the Emax was 79.8%.
